Experimental data published in US5854216A, “Marker for growth hormone-releasing factor receptors” (Universite de Montreal, priority 1996, dated 1998).
Values belong to the compound of their own block, whether it stands above or below them. Square brackets hold non-standard residues; d marks the D form. Peptide text beside a SMILES is read from it. Phe(4-NO2) = N[C@@H](Cc1ccc([N+](=O)[O-])cc1)C(=O)O; Bpa = N[C@@H](Cc1ccc(C(=O)c2ccccc2)cc1)C(=O)O; Nle = CCCC[C@H](N)C(=O)O

Biological target: T1, GRF receptors ([^125 I-Tyr^10 ]hGRF(1-44)NH2 binding sites in rat adenopituitary) (Rattus norvegicus, UniProt Q02644)
T1 construct: from tissue; host or cells: rat anterior pituitary homogenate
T1 sequence (Q02644 23-423 isoform Q02644-2 limits assumed): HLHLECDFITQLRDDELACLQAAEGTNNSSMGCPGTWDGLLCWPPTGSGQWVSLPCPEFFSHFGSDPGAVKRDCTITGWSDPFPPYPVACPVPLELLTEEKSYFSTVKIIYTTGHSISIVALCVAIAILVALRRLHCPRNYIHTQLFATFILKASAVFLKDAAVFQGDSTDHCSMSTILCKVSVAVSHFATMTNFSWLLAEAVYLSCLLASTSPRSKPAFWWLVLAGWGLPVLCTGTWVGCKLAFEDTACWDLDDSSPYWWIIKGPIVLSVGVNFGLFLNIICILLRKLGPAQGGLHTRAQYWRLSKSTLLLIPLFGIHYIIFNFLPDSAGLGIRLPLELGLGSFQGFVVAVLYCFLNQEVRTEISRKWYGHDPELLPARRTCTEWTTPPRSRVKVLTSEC
Test: Competitive binding assay with [^125 I-Tyr^10 ]hGRF(1-44)NH2 on anterior pituitary homogenates
Settings: for Relative affinity: ratio IC50 of hGRF(1-29)NH2 /IC50 analogue; for IC50: mean±SD of 2 or mean±SE of 3 experiments for analogues, mean±SE of 11 for hGRF(1-29)NH2
Protocol: The binding of [^125 I-Tyr^10 ]hGRF(1-44)NH2 was performed on anterior pituitary homogenates as previously described (Gaudreau P. et al., J. Biol. Chem., 1992, 35:1864-1869). Briefly, anterior pituitaries (pit.) were dissected out, rinsed and homogenized for 8 sec with a Micro Ultrasonic Cell Disrupter™, in ice-cold 50 mM Tris-HCl buffer, pH 7.4, containing 5 mM MgCl2 and 5 mM EDTA (1 pit./0.5 ml). These homogenates were used immediately. Competition studies were performed using 35-50 pM [^125 I-Tyr^10 ]hGRF(1-44)NH2 as radio-ligand,50 μl of homogenate (70 to 75 μg of protein), and increasing concentrations of Nε-CF-[Lys^31 ]hGRF or other GRF analogues (0-1000 nM) or with 2.4 μM rGRF(1-29)NH2 for determination of non-specific binding, in a total volume of 300 μl of Tris-HCl buffer, pH 7.4, containing 5 mM EDTA, 5 mM MgCl2 and 0.42% BSA. Incubations were carried out at 23° C. for 60 min and stopped by centrifugation (12,000 g, 5 min, at 4° C.). The radioactivity content in the pellet was measured by gamma counting. The affinity of hGRF(1-29)NH2 was tested in each experiment to assess the validity of the assay and determine the relative affinity of the analogues. […] The Hill values indicate that all these peptides bind to the high and low affinity GRF binding sites found in the anterior pituitary.

Compound: CCCC[C@H](NC(=O)[C@@H](NC(=O)[C@H](CC(=O)O)NC(=O)[C@H](CCC(N)=O)NC(=O)[C@H](CC(C)C)NC(=O)[C@H](CC(C)C)NC(=O)[C@H](CCCCN)NC(=O)[C@H](CCCNC(=N)N)NC(=O)[C@H](C)NC(=O)[C@H](CO)NC(=O)[C@H](CC(C)C)NC(=O)[C@H](CCC(N)=O)NC(=O)CNC(=O)[C@H](CC(C)C)NC(=O)[C@@H](NC(=O)[C@H](CCCCN)NC(=O)[C@H](CCCNC(=N)N)NC(=O)[C@H](Cc1ccc(O)cc1)NC(=O)[C@H](Cc1ccc(C(=O)c2ccccc2)cc1)NC(=O)[C@H](CC(N)=O)NC(=O)[C@@H](NC(=O)[C@H](Cc1ccccc1)NC(=O)[C@@H](NC(=O)[C@H](C)NC(=O)[C@H](CC(=O)O)NC(=O)[C@H](C)NC(=O)[C@@H](N)Cc1c[nH]cn1)[C@@H](C)CC)[C@@H](C)O)C(C)C)[C@@H](C)CC)C(=O)N[C@@H](CO)C(=O)N[C@@H](CCCNC(=N)N)C(N)=O [His^1, bpa^9, Nle^27] (H-HADAIFTN[Bpa]YRKVLGQLSARKLLQDI[Nle]SR-NH2)
- Hill coef. (Table 7): 0.70 ± 0.06
- Relative affinity (Table 7): 61.0 ± 7%

Compound: CC[C@H](C)[C@H](NC(=O)[C@H](C)NC(=O)[C@H](CC(=O)O)NC(=O)[C@@H](C)NC(=O)[C@@H](N)Cc1ccc(O)cc1)C(=O)N[C@@H](Cc1ccccc1)C(=O)N[C@H](C(=O)N[C@@H](CC(N)=O)C(=O)N[C@@H](CO)C(=O)N[C@H](Cc1ccc(O)cc1)C(=O)N[C@@H](CCCNC(=N)N)C(=O)N[C@@H](CCCCN)C(=O)N[C@H](C(=O)N[C@@H](CC(C)C)C(=O)NCC(=O)N[C@@H](CCC(N)=O)C(=O)N[C@@H](CC(C)C)C(=O)N[C@@H](CO)C(=O)N[C@@H](C)C(=O)N[C@@H](CCCNC(=N)N)C(=O)N[C@@H](CCCCN)C(=O)N[C@@H](CCCCN)C(=O)N[C@@H](CC(C)C)C(=O)N[C@@H](CCC(N)=O)C(=O)N[C@@H](CC(=O)O)C(=O)N[C@H](C(=O)N[C@@H](CCSC)C(=O)N[C@@H](CO)C(=O)N[C@@H](CCCNC(=N)N)C(N)=O)[C@@H](C)CC)C(C)C)[C@@H](C)O [D-Ala^2, D-Tyr^10, Lys^22] (H-Y[dA]DAIFTNS[dY]RKVLGQLSARKKLQDIMSR-NH2)
- IC50 (Table 11): 0.49 ± 0.27 nM

Compound: CC[C@H](C)[C@H](NC(=O)[C@H](C)NC(=O)[C@H](CC(=O)O)NC(=O)[C@H](C)NC(=O)[C@@H](N)Cc1ccc(O)cc1)C(=O)N[C@@H](Cc1ccccc1)C(=O)N[C@H](C(=O)N[C@@H](CC(N)=O)C(=O)N[C@@H](CO)C(=O)N[C@@H](Cc1ccc(O)cc1)C(=O)N[C@@H](CCCNC(=N)N)C(=O)N[C@@H](CCCCN)C(=O)N[C@H](C(=O)N[C@@H](CC(C)C)C(=O)NCC(=O)N[C@@H](CCC(N)=O)C(=O)N[C@@H](CC(C)C)C(=O)N[C@@H](CO)C(=O)N[C@@H](C)C(=O)N[C@@H](CCCNC(=N)N)C(=O)N[C@@H](CCCCN)C(=O)N[C@@H](CC(C)C)C(=O)N[C@@H](CC(C)C)C(=O)N[C@@H](CCC(N)=O)C(=O)N[C@@H](CC(=O)O)C(=O)N[C@H](C(=O)N[C@@H](CCSC)C(=O)N[C@@H](CO)C(=O)N[C@@H](CCCNC(=N)N)C(=O)NCCCCCCCC(=O)N[C@@H](CS)C(N)=O)[C@@H](C)CC)C(C)C)[C@@H](C)O [Octanoyl^30, Cys^31, [octanoyl^30,Cys^31] hGRF(1-29)NH2]
- IC50 (Table 11): 6.84 ± 2.12 nM

Compound: CC[C@H](C)[C@H](NC(=O)[C@H](C)NC(=O)[C@H](CC(=O)O)NC(=O)[C@H](C)NC(=O)[C@H](Cc1ccc(O)cc1)NC(=S)Nc1ccc(-c2c3ccc(=O)cc-3oc3cc(O)ccc23)c(C(=O)O)c1)C(=O)N[C@@H](Cc1ccccc1)C(=O)N[C@H](C(=O)N[C@@H](CC(N)=O)C(=O)N[C@@H](CO)C(=O)N[C@@H](Cc1ccc(O)cc1)C(=O)N[C@@H](CCCNC(=N)N)C(=O)N[C@@H](CCCCN)C(=O)N[C@H](C(=O)N[C@@H](CC(C)C)C(=O)NCC(=O)N[C@@H](CCC(N)=O)C(=O)N[C@@H](CC(C)C)C(=O)N[C@@H](CO)C(=O)N[C@@H](C)C(=O)N[C@@H](CCCNC(=N)N)C(=O)N[C@@H](CCCCN)C(=O)N[C@@H](CC(C)C)C(=O)N[C@@H](CC(C)C)C(=O)N[C@@H](CCC(N)=O)C(=O)N[C@@H](CC(=O)O)C(=O)N[C@H](C(=O)N[C@@H](CCSC)C(=O)N[C@@H](CO)C(=O)N[C@@H](CCCNC(=N)N)C(N)=O)[C@@H](C)CC)C(C)C)[C@@H](C)O [[Nα-fluorescein-5-thiocarbamyl]hGRF(1-29)NH2]
- Hill coef. (Table 4): 0.61 ± 0.05
- Relative affinity (Table 4): 19 ± 11%

Next, values leading:

- IC50 (in words): low nanomolar range
Compound: CC[C@H](C)[C@H](NC(=O)[C@H](C)NC(=O)[C@H](CC(=O)O)NC(=O)[C@H](C)NC(=O)[C@@H](N)Cc1ccc(O)cc1)C(=O)N[C@@H](Cc1ccccc1)C(=O)N[C@H](C(=O)N[C@@H](CC(N)=O)C(=O)N[C@@H](CO)C(=O)N[C@@H](Cc1ccc([N+](=O)[O-])cc1)C(=O)N[C@@H](CCCNC(=N)N)C(=O)N[C@@H](CCCCN)C(=O)N[C@H](C(=O)N[C@@H](CC(C)C)C(=O)NCC(=O)N[C@@H](CCC(N)=O)C(=O)N[C@@H](CC(C)C)C(=O)N[C@@H](CO)C(=O)N[C@@H](C)C(=O)N[C@@H](CCCNC(=N)N)C(=O)N[C@@H](CCCCN)C(=O)N[C@@H](CC(C)C)C(=O)N[C@@H](CC(C)C)C(=O)N[C@@H](CCC(N)=O)C(=O)N[C@@H](CC(=O)O)C(=O)N[C@H](C(=O)N[C@@H](CCSC)C(=O)N[C@@H](CO)C(=O)N[C@@H](CCCNC(=N)N)C(N)=O)[C@@H](C)CC)C(C)C)[C@@H](C)O [npa^10, [4'-nitro-phenylalanine^10]hGRF(1-29)NH2] (H-YADAIFTNS[Phe(4-NO2)]RKVLGQLSARKLLQDIMSR-NH2)

- IC50 (in words): low nanomolar range
- affinity for adenopituitary GRF receptors (in words): high affinity
Compound: 4'-benzoyl-phenylalyl^10 ]hGRF(1-29)NH2 [bpa^10]

- Hill coef. (Table 11): 0.63 ± 0.07
- Relative affinity (Table 11): 500 ± 91%
Compound: CC[C@H](C)[C@H](NC(=O)[C@H](C)NC(=O)[C@H](CC(=O)O)NC(=O)[C@@H](C)NC(=O)[C@@H](N)Cc1ccc(O)cc1)C(=O)N[C@@H](Cc1ccccc1)C(=O)N[C@H](C(=O)N[C@@H](C)C(=O)N[C@@H](CO)C(=O)N[C@H](Cc1ccc(O)cc1)C(=O)N[C@@H](CCCNC(=N)N)C(=O)N[C@@H](CCCCN)C(=O)N[C@H](C(=O)N[C@@H](CC(C)C)C(=O)N[C@@H](C)C(=O)N[C@@H](CCC(N)=O)C(=O)N[C@@H](CC(C)C)C(=O)N[C@@H](CO)C(=O)N[C@@H](C)C(=O)N[C@@H](CCCNC(=N)N)C(=O)N[C@H](CCCCN)C(=O)N[C@@H](CCCCN)C(=O)N[C@@H](CC(C)C)C(=O)N[C@@H](CCC(N)=O)C(=O)N[C@@H](CC(=O)O)C(=O)N[C@H](C(=O)N[C@@H](CCSC)C(=O)N[C@@H](CO)C(=O)N[C@@H](CCCNC(=N)N)C(N)=O)[C@@H](C)CC)C(C)C)[C@@H](C)O (H-Y[dA]DAIFTAS[dY]RKVLAQLSAR[dK]KLQDIMSR-NH2)
